Laboratory results reported in publication PMC3117834 (PLoS ONE, 2011).

Columns and labels:
Assay type in all cases: biochemical
Hog1 [1] = target: T1, Hog1 (Saccharomyces cerevisiae, UniProt P32485, T100G); test: […] kinase assay, Sic1 phosphorylation, autoradiography
T1 construct: pGEX-4T1 E. coli version also made

Hog1 [2] = target: T2, Hog1 (Saccharomyces cerevisiae, UniProt P32485); test: as above
T2 construct: pGEX-4T1 E. coli version also made
T2 sequence (P32485 2-435): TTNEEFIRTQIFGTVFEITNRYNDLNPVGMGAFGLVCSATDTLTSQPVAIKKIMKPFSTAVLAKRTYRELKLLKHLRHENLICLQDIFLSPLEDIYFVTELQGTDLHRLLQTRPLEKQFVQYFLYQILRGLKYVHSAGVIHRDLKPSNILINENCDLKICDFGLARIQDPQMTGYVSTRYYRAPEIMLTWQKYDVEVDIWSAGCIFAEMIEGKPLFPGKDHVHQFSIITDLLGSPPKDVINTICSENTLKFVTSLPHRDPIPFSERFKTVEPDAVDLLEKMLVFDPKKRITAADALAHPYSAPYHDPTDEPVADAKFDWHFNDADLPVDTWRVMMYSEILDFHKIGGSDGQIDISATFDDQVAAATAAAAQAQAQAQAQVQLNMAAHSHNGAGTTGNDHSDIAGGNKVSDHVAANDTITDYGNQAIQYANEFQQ

Hog1 [3] = target: T1, Hog1; test: as above; details: in vitro-activated Hog1as
Hog1 [4] = target: T1, Hog1; test: as above; remark: listed apart in the source
Pbs2 [5] = target: T3, Pbs2 (Saccharomyces cerevisiae, UniProt P08018, M435A); test: […] kinase assay, Hog1 phosphorylation, autoradiography
T3 construct: GST fusion (pGEX-4T1) from E. coli DH5alpha
T3 sequence (P08018 1-668 M435A): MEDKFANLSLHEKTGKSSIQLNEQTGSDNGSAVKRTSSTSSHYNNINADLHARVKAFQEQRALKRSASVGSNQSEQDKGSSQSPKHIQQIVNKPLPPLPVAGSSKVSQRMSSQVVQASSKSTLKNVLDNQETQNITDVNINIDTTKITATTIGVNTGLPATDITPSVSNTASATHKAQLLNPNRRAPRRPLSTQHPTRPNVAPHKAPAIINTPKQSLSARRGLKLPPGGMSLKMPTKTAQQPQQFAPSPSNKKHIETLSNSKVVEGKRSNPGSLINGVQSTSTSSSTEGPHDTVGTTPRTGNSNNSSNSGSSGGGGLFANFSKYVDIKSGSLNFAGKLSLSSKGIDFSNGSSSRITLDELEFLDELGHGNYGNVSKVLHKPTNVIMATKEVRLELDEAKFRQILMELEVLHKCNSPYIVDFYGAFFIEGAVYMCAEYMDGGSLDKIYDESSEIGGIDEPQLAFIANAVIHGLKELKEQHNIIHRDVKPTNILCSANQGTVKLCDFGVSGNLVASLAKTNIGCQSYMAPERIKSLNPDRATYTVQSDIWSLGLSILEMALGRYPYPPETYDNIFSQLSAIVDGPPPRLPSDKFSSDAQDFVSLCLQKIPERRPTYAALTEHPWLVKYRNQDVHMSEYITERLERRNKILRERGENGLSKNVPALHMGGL

Pbs2 [6] = target: T3, Pbs2; test: as above; details: [gamma-32P]-phenethyl-ATP as phosphodonor; GST-Hog1 substrate; pH 8.0; 30 °C

T1 sequence (P32485 2-435 T100G): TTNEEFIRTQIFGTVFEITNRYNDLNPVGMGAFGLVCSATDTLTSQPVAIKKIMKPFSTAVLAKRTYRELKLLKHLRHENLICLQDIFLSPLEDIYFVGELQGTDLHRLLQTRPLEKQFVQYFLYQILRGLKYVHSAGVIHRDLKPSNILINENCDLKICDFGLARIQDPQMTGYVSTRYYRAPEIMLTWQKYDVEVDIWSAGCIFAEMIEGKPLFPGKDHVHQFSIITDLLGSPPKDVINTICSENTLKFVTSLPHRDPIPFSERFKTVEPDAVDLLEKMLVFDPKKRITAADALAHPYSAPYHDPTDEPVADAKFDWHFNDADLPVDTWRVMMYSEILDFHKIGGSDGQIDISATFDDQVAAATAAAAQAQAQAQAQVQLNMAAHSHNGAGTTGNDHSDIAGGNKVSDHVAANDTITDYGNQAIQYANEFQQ

Question: Which inhibition at 5 µM (Hog1 [1]) does the source give for `CC(C)n1nc(C#Cc2ccc(Cl)cc2)c2c(N)ncnc21` [6c, 3-((4-chlorophenyl)ethynyl)-1-isopropyl-1H-pyrazolo[3,4-d]pyrimidin-4-amine] here?
Answer: > 89%

Question: With `CC(C)n1nc(-c2ccc(F)cc2)c2c(N)ncnc21` [5b, 3-(4-Fluorophenyl)-1-isopropyl-1H-pyrazolo[3,4-d]pyrimidin-4-amine] as the compound, how does the inhibition at 5 µM (Hog1 [2]) read?
Answer: 94%

Question: Which “32P kinase assay, Sic1 phosphorylation, autoradiography” value (Hog1 [3]) does the source give for `Nc1ncnc2c1c(C#Cc1ccccc1)nn2CC(O)CO` (stereo not shown) [7b, 3-(4-amino-3-(phenylethynyl)-1H-pyrazolo[3,4-d]pyrimidin-1-yl)propane-1,2-diol] here?
Answer: in vitro these compounds were able to inhibit Hog1as as efficiently as 6a

Question: For `CC(C)(C)n1nc(Cc2cccc3ccccc23)c2c(N)ncnc21` [compound 9, 1-NM-PP1], which IC50 (Hog1 [4]) is on record?
Answer: 9.47 ± 0.38 nM

Question: What about the IC50 (Pbs2 [5]) of the same compound?
Answer: 7.54 ± 0.25 nM

Question: For `CC(C)n1nc(C#Cc2ccc(F)cc2)c2c(N)ncnc21` [6b, 3-((4-fluorophenyl)ethynyl)-1-isopropyl-1H-pyrazolo[3,4-d]pyrimidin-4-amine], which inhibition at 5 µM (Hog1 [1]) is on record?
Answer: > 89%

Question: And the “% inhibition at 5 μM” value (Pbs2 [6])?
Answer: Pbs2as was inhibited by all the compounds in vitro

Question: Which results are given for `CC(C)n1nc(C#Cc2ccccc2)c2c(N)ncnc21` [6a, 1-Isopropyl-3-(phenylethynyl)-1H-pyrazolo[3,4-d]pyrimidin-4-amine]?
Answer: IC50 (Hog1 [4]): 37 ± 2.72 nM; IC50 (Pbs2 [5]): 4.02 ± 0.26 nM

Question: With `Nc1ncnc2c1c(C#Cc1ccccc1)nn2CCO` [7a, 2-(4-amino-3-(phenylethynyl)-1H-pyrazolo[3,4-d]pyrimidin-1-yl)etanol] as the compound, how does the “32P kinase assay, Sic1 phosphorylation, autoradiography” value (Hog1 [3]) read?
Answer: in vitro these compounds were able to inhibit Hog1as as efficiently as 6a
